Measurements taken from paper PMC11189555, “Aryl amino acetamides prevent Plasmodium falciparum ring development via targeting the lipid-transfer protein PfSTART1” (Nature Communications, 2024).

Legend:
[1] = tested on: PopD-D7 M-833 resistant clone (PfSTART1 N309K); assay: Growth inhibition assay (72 h, LDH activity); type: cell-based, Plasmodium falciparum; conditions: for EC50: Plasmodium falciparum, 72 h, read-out: EC50; for EC50 / Fold change compared to 3D7: Supplementary Table 1; for EC50 / resistance of the line compared with 3D7: PopD-D7 (N309K); for resistance of the line compared with 3D7: Fig 4B; for Fold change compared to 3D7: EC50 on PopD-D7 vs 3D7
Protocol: The drug was then removed, and parasites were allowed to recover. Another cycle of drug treatment (3 μM M-833) was then resumed. The resistant lines were cloned out by limiting dilution (diluting the culture into a 96-well plate to achieve an average of ~0.3 parasites per well), prior to growth inhibition assays and genomic DNA (gDNA) extraction (DNeasy Blood and Tissue kit (Qiagen)[18].
Parasite growth assays with inhibitory compounds were performed as per[11] and are fully described in the Supplementary Information. […]
Growth inhibition assays. Synchronised ring-stage parasites (0.3-0.6% parasitemia, 2% haematocrit) were grown for 72 h in a serial-dilution of the compound under […]
and compound 4. Note that M-833 was first purchased from MolPort (MolPort -002-267-916) then made in-house at WEHI: the differences observed in EC50s across experiments are attributed to the different batches of M -833. For some experiments, 0, 0.25 or 2.5 mM of glucosamine (GlcN) was also added. Experiments were set up in technical duplicates or triplicates. Following a freeze -thaw cycle, lactate dehydrogenase (LDH) activity was assessed as an indicator of parasite growt h 5. 30 μL of parasite culture was incubated for 30 min in the dark with 75 μL Malstat mixture (0.1 M Tris pH 9.0, 20 g/L lactic acid, pH 7.5, 0.2% Triton-X100, 0.5 g/L acetylpyridine adenine dinucleotide (APAD, Sigma), 200 μg/mL nitroblue tetrazolium (NBT; Sigma), 1 μg/mL phenozine ethosulfate (PES; Sigma)). Absorbance was then measured at 650 nm, transformed using the formula below, plotted against the logarithm of the concentrations, and a non-linear regression (log(inhibitor) vs. response, variable slope) was calculated using GraphPad Prism to assess the half-inhibitory […]
Growth inhibition % = (1 − average(sample)− average(uRBC)) ∗ 100 […]
The DMSO samples were also used to assess growth of parasite in the presence of 0.25 and 2.5 mM GlcN (normalised by DMSO in 0 mM GlcN). […]

[2] = target: T1, recombinant PfSTART1(WT) (I149-V394) (Plasmodium falciparum, UniProt Q8I298); assay: Isothermal titration calorimetry; type: binding; conditions: ITC
T1 construct: START domain alone (I149-V394 from PF3D7_0104200); 8xHis tag (N); TEV protease cleavage site (N); made in house; host or cells: Sf21 insect cells (baculovirus)
Excerpt: Codon optimised (Spodoptera frugiperda, Sf) START domain alone (I149-V394 from PF3D7_0104200) was synthesised by Integrated DNA Technologies and cloned into a modified baculovirus transfer vector (pAcGP67-A) with a N-terminal GP67-signal sequence, 8xHis tag, and TEV protease cleavage site. Recombinant baculovirus was generated via the flashBACTM Baculovirus Expression System using Sf21 cells (Life Technologies), amplified to reach a third passage viral stock, and 1.5% used to infect Sf21 for protein expression. After incubation for three days at 28 °C, media containing secreted protein was harvested by centrifugation and supplemented with 50 mM Tris pH 7.5, 20 mM MgCl2, 100 mM NaCl, and 10-20 mM imidazole. The supplemented protein sample was purified by nickel affinity chromatography (HisTrap Excel 5 mL, Cytiva), and eluted with 20 mM Tris pH 7.5, 500 mM NaCl, 300-500 mM imidazole. Eluted fractions were further purified using size-exclusion chromatography (Superdex S75 16/600 or Superdex 10/300, Cytiva) with the column pre-equilibrated with 20 mM HEPES pH 7.5, 150 mM NaCl, and peak-containing fractions concentrated and stored at -80 °C until required. If required, prior to ITC, a second size-exclusion chromatography step was performed to remove soluble aggregates.
ITC experiments were performed on a MicroCal PEAQ-ITC calorimeter at 25 °C, with a stirring speed of 750 rpm and a reference power of 5 μcal/sec. 500 μM M-833 series inhibitor solutions were diluted to 10 μM in 50 mM NaPO4^-3 (pH 7.4), 150 mM NaCl with a final DMSO concentration of 2% (v/v) (cell sample). PfSTART1 protein was dialysed extensively against 50 mM NaPO4^-3 (pH 7.4), 150 mM NaCl, before diluting to 90 μM in the same buffer with 2% (v/v) DMSO (syringe sample). The first injection was 0.4 μL over a 0.8 s duration, and the remaining 19 injections were 2 μL of 4 s duration, with 150 s injection spacing. Data were collected and analysed using the PEAQ-ITC software (MicroCal) and fit by a single site binding model. A fitted offset (constant control heat) was also applied to the integrated heat.

T1 sequence (Q8I298 entry or part of it): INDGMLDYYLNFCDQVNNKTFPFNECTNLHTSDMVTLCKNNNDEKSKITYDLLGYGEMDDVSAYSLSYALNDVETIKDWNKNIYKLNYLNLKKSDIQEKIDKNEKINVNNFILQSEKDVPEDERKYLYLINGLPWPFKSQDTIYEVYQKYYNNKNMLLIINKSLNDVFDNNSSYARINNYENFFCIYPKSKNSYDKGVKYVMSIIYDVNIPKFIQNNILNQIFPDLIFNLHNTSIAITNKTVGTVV

CC(C)(Oc1ccc(Cl)c(S(=O)(=O)N2CCOCC2)c1)C(=O)Nc1ccc(F)c(Cl)c1 [compound 3]
EC50 [1]: 1.4 µM | resistance of the line compared with 3D7 [1]: highly resistant | (av-uRBC) / (DMSO-uRBC) x100 ([1]; PopD-D7, 3.04832 nM, biological replicate 1): 117.893 | (av-uRBC) / (DMSO-uRBC) x100 ([1]; PopD-D7, 3.04832 nM, biological replicate 2): 107.059 | (av-uRBC) / (DMSO-uRBC) x100 ([1]; PopD-D7, 3.04832 nM, biological replicate 3): 122.96 | (av-uRBC) / (DMSO-uRBC) x100 ([1]; PopD-D7, 9.14495 nM, biological replicate 1): 119.508 | (av-uRBC) / (DMSO-uRBC) x100 ([1]; PopD-D7, 9.14495 nM, biological replicate 2): 110.415 | (av-uRBC) / (DMSO-uRBC) x100 ([1]; PopD-D7, 9.14495 nM, biological replicate 3): 124.421 | (av-uRBC) / (DMSO-uRBC) x100 ([1]; PopD-D7, 27.4348 nM, biological replicate 1): 119.539 | (av-uRBC) / (DMSO-uRBC) x100 ([1]; PopD-D7, 27.4348 nM, biological replicate 2): 110.363 | (av-uRBC) / (DMSO-uRBC) x100 ([1]; PopD-D7, 27.4348 nM, biological replicate 3): 140.932 | (av-uRBC) / (DMSO-uRBC) x100 ([1]; PopD-D7, 82.3045 nM, biological replicate 1): 115.279 | (av-uRBC) / (DMSO-uRBC) x100 ([1]; PopD-D7, 82.3045 nM, biological replicate 2): 110.433 | (av-uRBC) / (DMSO-uRBC) x100 ([1]; PopD-D7, 82.3045 nM, biological replicate 3): 132.525 | (av-uRBC) / (DMSO-uRBC) x100 ([1]; PopD-D7, 246.914 nM, biological replicate 1): 110.69 | (av-uRBC) / (DMSO-uRBC) x100 ([1]; PopD-D7, 246.914 nM, biological replicate 2): 106.686 | (av-uRBC) / (DMSO-uRBC) x100 ([1]; PopD-D7, 246.914 nM, biological replicate 3): 118.688 | (av-uRBC) / (DMSO-uRBC) x100 ([1]; PopD-D7, 740.741 nM, biological replicate 1): 93.2195 | (av-uRBC) / (DMSO-uRBC) x100 ([1]; PopD-D7, 740.741 nM, biological replicate 2): 100.295 | (av-uRBC) / (DMSO-uRBC) x100 ([1]; PopD-D7, 740.741 nM, biological replicate 3): 70.3418 | (av-uRBC) / (DMSO-uRBC) x100 ([1]; PopD-D7, 2222.22 nM, biological replicate 1): 51.7543 | (av-uRBC) / (DMSO-uRBC) x100 ([1]; PopD-D7, 2222.22 nM, biological replicate 2): 59.804 | (av-uRBC) / (DMSO-uRBC) x100 ([1]; PopD-D7, 2222.22 nM, biological replicate 3): 18.6053 | (av-uRBC) / (DMSO-uRBC) x100 ([1]; PopD-D7, 6666.67 nM, biological replicate 1): 13.8697 | (av-uRBC) / (DMSO-uRBC) x100 ([1]; PopD-D7, 6666.67 nM, biological replicate 2): 12.8436 | (av-uRBC) / (DMSO-uRBC) x100 ([1]; PopD-D7, 6666.67 nM, biological replicate 3): 12.5413 | (av-uRBC) / (DMSO-uRBC) x100 ([1]; PopD-D7, 20000 nM, biological replicate 1): 8.262 | (av-uRBC) / (DMSO-uRBC) x100 ([1]; PopD-D7, 20000 nM, biological replicate 2): 6.955 | (av-uRBC) / (DMSO-uRBC) x100 ([1]; PopD-D7, 20000 nM, biological replicate 3): 7.3043 | Fold change compared to 3D7 [1]: 88 fold

CN(C(=O)C(C)(C)Nc1ccc(Cl)c(S(=O)(=O)N2CCOCC2)c1)c1ccc(F)c(Cl)c1 [compound 4]
EC50 [1]: 15.7 µM | resistance of the line compared with 3D7 [1]: No change in EC50 | sample/DMSO ([1]; PopD-D7, 0.00152416 uM, biological replicate 3): -12.3682 | sample/DMSO ([1]; PopD-D7, 0.00304832 uM, biological replicate 1): -15.0464 | sample/DMSO ([1]; PopD-D7, 0.00457247 uM, biological replicate 3): -16.5856 | sample/DMSO ([1]; PopD-D7, 0.00914495 uM, biological replicate 1): -23.9863 | sample/DMSO ([1]; PopD-D7, 0.0137174 uM, biological replicate 3): -19.1403 | sample/DMSO ([1]; PopD-D7, 0.0274348 uM, biological replicate 1): -36.3947 | sample/DMSO ([1]; PopD-D7, 0.0411523 uM, biological replicate 3): -26.0746 | sample/DMSO ([1]; PopD-D7, 0.078125 uM, biological replicate 2): -26.6126 | sample/DMSO ([1]; PopD-D7, 0.0823045 uM, biological replicate 1): -40.9868 | sample/DMSO ([1]; PopD-D7, 0.123457 uM, biological replicate 3): -30.0892 | sample/DMSO ([1]; PopD-D7, 0.15625 uM, biological replicate 2): -24.0527 | sample/DMSO ([1]; PopD-D7, 0.246914 uM, biological replicate 1): -42.7943 | sample/DMSO ([1]; PopD-D7, 0.3125 uM, biological replicate 2): -25.1299 | sample/DMSO ([1]; PopD-D7, 0.37037 uM, biological replicate 3): -34.7932 | sample/DMSO ([1]; PopD-D7, 0.625 uM, biological replicate 2): -6.501 | sample/DMSO ([1]; PopD-D7, 0.740741 uM, biological replicate 1): -38.9839 | sample/DMSO ([1]; PopD-D7, 1.11111 uM, biological replicate 3): -37.8751 | sample/DMSO ([1]; PopD-D7, 1.25 uM, biological replicate 2): 3.536 | sample/DMSO ([1]; PopD-D7, 2.22222 uM, biological replicate 1): -23.9863 | sample/DMSO ([1]; PopD-D7, 2.5 uM, biological replicate 2): 14.2567 | sample/DMSO ([1]; PopD-D7, 3.33333 uM, biological replicate 3): -28.5888 | sample/DMSO ([1]; PopD-D7, 5 uM, biological replicate 2): 26.676 | sample/DMSO ([1]; PopD-D7, 6.66667 uM, biological replicate 1): 9.624 | sample/DMSO ([1]; PopD-D7, 10 uM, biological replicate 2): 49.8923 | sample/DMSO ([1]; PopD-D7, 10 uM, biological replicate 3): 18.8159 | sample/DMSO ([1]; PopD-D7, 20 uM, biological replicate 1): 64.3869 | sample/DMSO ([1]; PopD-D7, 20 uM, biological replicate 2): 82.347 | Fold change compared to 3D7 [1]: 1.6 fold | interaction with PfSTART1(WT) [2]: did not interact
